Patent publication US20250320206A1, “STAT6 DEGRADERS” (Gilead Sciences, Inc., priority 2024, published 2025)

System: Eotaxin-3 release in human whole blood stimulated with IL-4
Assay: Human Whole Blood Eotaxin-3 Assay (IL-4 stimulated eotaxin-3 release)
Type: cell-based
Details: IL-4 stimulation, 48 h, values given for compounds with >80% Emax, geometric mean
Protocol: Human Whole Blood Eotaxin-3 Assay
This was a human whole blood assay using recombinant human Interleukin 4 to stimulate the blood and measuring the ability of the test compounds to inhibit eotaxin-3 release. The biological activities of the test compounds have been tested in human whole blood stimulated with IL-4 measuring Eotaxin-3 release. The test compounds were added to 384 well clear flat-bottom plate in a 4-fold serial dilution in triplicates using a liquid handler. Human whole blood stabilized in lithium-heparin tubes was added in a volume of 65 μL per well, resulting in a final DMSO concentration of 0.5%. The plate is incubated for 2 h at 37° C. under 5% CO2/95% air. Subsequently, 5 μL of recombinant human IL-4 (R&D Systems, cat #204-ILB) was added to the wells to a final concentration of […]. The plate was incubated for 48 h at 37° C. under 5% CO2/95% air. The plate was spun down for 10 minutes at 500×g and 20 μL supernatant was harvested and transferred to a 384 well v-bottom plate using a liquid handler and stored at −20° C. until further analysis. 10 μL supernatant was used to measure the level of Eotaxin-3 (CCL26) using Human Eotaxin-3 MSD kit from Mesocsale (Cat #K251UEK-4). The assay was performed according to the manufacture instructions.
The data from the human whole blood eotaxin-3 assay is shown in FIG. 2 for Examples 3u208, 3u246, 3u118, 3u119, 3u120, and 3u74 (where the effect in % is plotted against the test concentration in M on a log scale).

SMILES | EC50
CNc1cc(=O)n(-c2ccnc3c2cc([C@H](C)N2CC=C(c4c(C)cc(C(=O)N5CCC(CN6CCN(c7cc8c(cc7F)N(C7CCC(=O)NC7=O)C(=O)C8(C)C)CC6)CC5)cc4F)CC2)n3C)cc1F (stereo partly drawn) [Example 3u306, 3-(6-fluoro-5-(4-((1-(3-fluoro-4-(1-((S)-1-(4-(5-fluoro-4-(methylamino)-2-oxopyridin-1 (2H)-yl)-1-methyl-1H-pyrrolo[2,3-b]pyridin-2-yl)ethyl)-1,2,3,6-tetrahydropyridin-4-yl)-5-methylbenzoyl)piperidin-4-yl)methyl)piperazin-1-yl)-3,3-dimethyl-2-oxoindolin-1-yl)piperidine-2,6-dione] | 194 nM
CNc1ccn(-c2ccnc3c2cc(CN2CCC(c4c(F)cc(C(=O)N5CCC(CN6CCN(c7ccc8c(c7)C7(CC7)C(=O)N8[C@@H]7CCC(=O)NC7=O)CC6)CC5)cc4F)CC2)n3C)c(=O)c1 (single isomer, unassigned) [Example 3u150] | 39.2 nM
CNc1cc(=O)n(-c2ccnc3c2cc([C@H](C)N2CC=C(c4c(C)cc(C(=O)N5CCC(CN6CCN(c7cccc8c7n(C)c(=O)n8C7CCC(=O)NC7=O)CC6)CC5)cc4F)CC2)n3C)cc1F (stereo partly drawn) [Example 3u271, 3-(4-(4-((1-(3-fluoro-4-(1-((S)-1-(4-(5-fluoro-4-(methylamino)-2-oxopyridin-1 (2H)-yl)-1-methyl-1H-pyrrolo[2,3-b]pyridin-2-yl)ethyl)-1,2,3,6-tetrahydropyridin-4-yl)-5-methylbenzoyl)-piperidin-4-yl)methyl)piperazin-1-yl)-3-methyl-2-oxo-2,3-dihydro-1H-benzo[d]imidazol-1-yl)-piperidine-2,6-dione] | 3.3 nM
Cc1cc(C(=O)N2CCC(CN3CCN(c4cc5c(cc4F)n(C4CCC(=O)NC4=O)c(=O)n5C)CC3)CC2)cc(F)c1C1=CCN([C@@H](C)c2cc3c(-n4cc(F)c5c(c4=O)CCN5)ccnc3n2C)CC1 (stereo partly drawn) [Example 3u253, 3-(6-fluoro-5-(4-((1-(3-fluoro-4-(1-((S)-1-(4-(7-fluoro-4-oxo-1,2,3,4-tetrahydro-5H-pyrrolo[3,2-c]pyridin-5-yl)-1-methyl-1H-pyrrolo[2,3-b]pyridin-2-yl)ethyl)-1,2,3,6-tetrahydropyridin-4-yl)-5-methylbenzoyl)piperidin-4-yl)methyl)piperazin-1-yl)-3-methyl-2-oxo-2,3-dihydro-1H-benzo[d]imidazol-1-yl)piperidine-2,6-dione] | 8.1 nM
CNc1cc(=O)n(-c2ccnc3c2cc(CN2CCC(c4c(F)cc(C(=O)N5CCC(CN6CCN(c7ccc8c(c7)C7(CC7)C(=O)N8[C@@H]7CCC(=O)NC7=O)CC6)CC5)cc4F)CC2)n3C)cc1F (single isomer, unassigned) [Example 3u289] | 18.9 nM
CNc1ccn(-c2ccnc3c2cc([C@H](C)N2CC=C(c4c(C)cc(C(=O)N5CCC(CN6CCN(c7ccc8c(c7)C(C)(C)C(=O)N8[C@H]7CCC(=O)NC7=O)CC6)CC5)cc4F)CC2)n3C)c(=O)c1 (single isomer, unassigned) [Example 3u280] | 12.8 nM
CNc1cc(=O)n(-c2ccnc3c2cc([C@H](C)N2CC=C(c4c(C)cc(C(=O)N5CCC(CN6CCN(Cc7ccc8c(c7)C7(CC7)C(=O)N8C7CCC(=O)NC7=O)C[C@@H]6C)CC5)cc4F)CC2)n3C)cc1OC (stereo partly drawn) [Example 3u117, 3-(5′-(((S)-4-((1-(3-fluoro-4-(1-((S)-1-(4-(5-methoxy-4-(methylamino)-2-oxopyridin-1 (2H)-yl)-1-methyl-1H-pyrrolo[2,3-b]pyridin-2-yl)ethyl)-1,2,3,6-tetrahydropyridin-4-yl)-5-methylbenzoyl)piperidin-4-yl)methyl)-3-methylpiperazin-1-yl)methyl)-2′-oxospiro[cyclopropane-1,3′-indolin]-1′-yl)piperidine-2,6-dione] | 1210 nM
CNc1ccn(-c2ccnc3c2cc(CN2CCC(c4c(F)cc(C(=O)N5CCC(CN6CCN(c7cc8c(cc7F)n(C7CCC(=O)NC7=O)c(=O)n8C)CC6)CC5)cc4F)CC2)n3C)c(=O)n1 (stereo not drawn) [Example 3h43, 3-(5-(4-((1-(3,5-difluoro-4-(1-((1-methyl-4-(4-(methylamino)-2-oxopyrimidin-1 (2H)-yl)-1H-pyrrolo[2,3-b]pyridin-2-yl)methyl)piperidin-4-yl)benzoyl)piperidin-4-yl)methyl)piperazin-1-yl)-6-fluoro-3-methyl-2-oxo-2,3-dihydro-1H-benzo[d]imidazol-1-yl)piperidine-2,6-dione] | 7.4 nM
CNc1ccn(-c2ccnc3c2cc(CN2CCC(c4c(F)cc(C(=O)N5CCC(CN6CCN(c7cc8c(cc7F)n(C7CCC(=O)NC7=O)c(=O)n8C)CC6)CC5)cc4F)CC2)n3C)c(=O)c1 (stereo not drawn) [Example 3u270, 3-(5-(4-((1-(3,5-difluoro-4-(1-((1-methyl-4-(4-(methylamino)-2-oxopyridin-1 (2H)-yl)-1H-pyrrolo[2,3-b]pyridin-2-yl)methyl)piperidin-4-yl)benzoyl)piperidin-4-yl)methyl)piperazin-1-yl)-6-fluoro-3-methyl-2-oxo-2,3-dihydro-1H-benzo[d]imidazol-1-yl)piperidine-2,6-dione] | 26.8 nM
CNc1ccn(-c2ccnc3c2cc([C@H](C)N2CC=C(c4c(C)cc(C(=O)N5CCC(CN6CCN(Cc7ccc8c(c7)n(C7CC7)c(=O)n8C7CCC(=O)NC7=O)C[C@@H]6C)CC5)cc4F)CC2)n3C)c(=O)c1OC (stereo partly drawn) [Example 3u135, 3-(3-cyclopropyl-5-(((S)-4-((1-(3-fluoro-4-(1-((S)-1-(4-(3-methoxy-4-(methylamino)-2-oxopyridin-1 (2H)-yl)-1-methyl-1H-pyrrolo[2,3-b]pyridin-2-yl)ethyl)-1,2,3,6-tetrahydropyridin-4-yl)-5-methylbenzoyl)piperidin-4-yl)methyl)-3-methylpiperazin-1-yl)methyl)-2-oxo-2,3-dihydro-1H-benzo[d]imidazol-1-yl)piperidine-2,6-dione] | 185 nM
CNc1cc(=O)n(-c2ccnc3c2cc([C@H](C)N2CC=C(c4c(C)cc(C(=O)N5CCC(F)(CN6CCN(c7ccc8c(c7)C7(CC7)C(=O)N8C7CCC(=O)NC7=O)CC6)CC5)cc4F)CC2)n3C)cc1F (stereo partly drawn) [Example 3u136, 3-(5′-(4-((4-fluoro-1-(3-fluoro-4-(1-((S)-1-(4-(5-fluoro-4-(methylamino)-2-oxopyridin-1 (2H)-yl)-1-methyl-1H-pyrrolo[2,3-b]pyridin-2-yl)ethyl)-1,2,3,6-tetrahydropyridin-4-yl)-5-methyl-benzoyl)piperidin-4-yl)methyl)piperazin-1-yl)-2′-oxospiro[cyclopropane-1,3′-indolin]-1′-yl)piperidine-2,6-dione] | 16.4 nM
CNc1ccn(-c2ccnc3c2cc([C@H](C)N2CC=C(c4c(C)cc(C(=O)N5CCn6c(nnc6C6CCN(c7ccc8c(c7)n(C)c(=O)n8C7CCC(=O)NC7=O)CC6)C5)cc4F)CC2)n3C)c(=O)c1 (stereo partly drawn) [Example 3u260, 3-(5-(4-(7-(3-fluoro-5-methyl-4-(1-((S)-1-(1-methyl-4-(4-(methylamino)-2-oxopyridin-1 (2H)-yl)-1H-pyrrolo[2,3-b]pyridin-2-yl)ethyl)-1,2,3,6-tetrahydropyridin-4-yl)benzoyl)-5,6,7,8-tetrahydro-[1,2,4]triazolo[4,3-a]pyrazin-3-yl)piperidin-1-yl)-3-methyl-2-oxo-2,3-dihydro-1H-benzo[d]imidazol-1-yl)piperidine-2,6-dione] | 11.2 nM
CNc1ccn(-c2ccnc3c2cc([C@H](C)N2CC=C(c4c(C)cc(C(=O)N5CCC(CN6CCN(Cc7ccc8c(c7)C7(CCOCC7)C(=O)N8C7CCC(=O)NC7=O)CC6)CC5)cc4F)CC2)n3C)c(=O)c1 (stereo partly drawn) [Example 3u257, 3-(5-((4-((1-(3-fluoro-5-methyl-4-(1-((S)-1-(1-methyl-4-(4-(methylamino)-2-oxopyridin-1 (2H)-yl)-1H-pyrrolo[2,3-b]pyridin-2-yl)ethyl)-1,2,3,6-tetrahydropyridin-4-yl)benzoyl)-piperidin-4-yl)methyl)piperazin-1-yl)methyl)-2-oxo-2′,3′,5′,6′-tetrahydrospiro[indoline-3,4′-pyran]-1-yl)piperidine-2,6-dione] | 24.2 nM
CNc1nc(=O)n(-c2ccnc3c2cc([C@H](C)N2CC=C(c4c(C)cc(C(=O)N5CCC(CN6CCN(c7cc8c(cc7F)n(C7CCC(=O)NC7=O)c(=O)n8C)CC6)CC5)cc4F)CC2)n3C)cc1F (stereo partly drawn) [Example 3u268, 3-(6-fluoro-5-(4-((1-(3-fluoro-4-(1-((S)-1-(4-(5-fluoro-4-(methylamino)-2-oxopyrimidin-1 (2H)-yl)-1-methyl-1H-pyrrolo[2,3-b]pyridin-2-yl)ethyl)-1,2,3,6-tetrahydropyridin-4-yl)-5-methylbenzoyl)piperidin-4-yl)methyl)piperazin-1-yl)-3-methyl-2-oxo-2,3-dihydro-1H-benzo[d]-imidazol-1-yl)piperidine-2,6-dione] | 5.6 nM
CNc1cc(=O)n(-c2ccnc3c2cc(CN2CCC(c4c(F)cc(C(=O)N5CCC(CN6CCN(c7ccc8c(c7)C7(CC7)C(=O)N8[C@H]7CCC(=O)NC7=O)CC6)CC5)cc4F)CC2)n3C)cc1F (single isomer, unassigned) [Example 3u288] | 88.3 nM
